Laboratory results reported in PMC3731320, “Identification of Benzimidazole Diamides as Selective Inhibitors of the Nucleotide-Binding Oligomerization Domain 2 (NOD2) Signaling Pathway” (PLoS ONE, 2013).
Entries after “also recorded” stand apart in the source; their conditions may differ. Read-outs that look alike come from different tables or passages of the source.

Columns and labels:
Type in all cases: cell-based, human
HCT116 cells = experiment: Uptake of MDP-rhodamine by HCT116 cells (fluorescence microscopy); settings: GSK669 up to 20 μM, chlorpromazine 20 μM, 1–4 hour
Method: HCT116 cells seeded onto glass cover-slips at low density were pre-treated with GSK669 or the endocytosis inhibitor chlorpromazine for 30 minutes before addition of 2.5 μg/mL MDP-rhodamine. Live cells were viewed periodically over 6-hours incubation at 37 °C using a Nikon eclipse TE2000-E fluorescent inverted microscope fitted with a CCTV camera and rhodamine filter.

NOD2 = experiment: ssRNA-induced IFNβ gene expression in 293/hNOD2 cells (real-time RT-PCR); settings: GSK669 0.16–16 μM, RIP2 inhibitor 0.1 μM, mRNA after 6 hours
Method: Cells seeded in 96-well plates at sub-confluent density (60,000/well) in DMEM + 1% FBS were transfected for 6 hours with ssRNA40 (1.25–6.67 μg/mL) using lipofectamine 2000 (Invitrogen) and RNA/liposome complexes prepared in Opti-MEM1 medium (Invitrogen). Induction of IFNβ gene expression was measured by real-time reverse transcription PCR (Taqman). RNA was isolated from cell extracts in Trizol (Invitrogen) using the RNeasy kit (Qiagen), and mRNA quantified following reverse transcription and PCR amplification using Taqman reverse transcription and Taqman PCR core reagent kits, pre-formulated primer/probe mixes and ABI 7900 sequence detection system (Applied Biosystems). Expression of IFNβ (ABI primer/probe mix Hs01077958_s1) was normalized to 18S ribosomal RNA.

TNFR1 = experiment: TNFα-stimulated (TNFR1-induced) IL-8 release in 293/hNOD2 cells; settings: read-out: IC50 293/hNOD2 TNFα, IL-8 end-point, 20 ng/mL rhTNFα
Method: After 24 hours the amount of IL-8 secreted into the medium was determined by homogeneous time resolved fluorescence (HTRF) assay by the direct addition of a 1:1 mix of europium cryptate and XL665-conjugated anti-IL-8 antibodies according to the manufacturer's instructions (Cisbio).

SMILES: O=C(Cn1c(CCNC(=O)c2ccccc2)nc2ccccc21)Nc1ccc2c(c1)CCC2 [Compound 1, N-(2-(1-(2-((2,3-dihydro-1H-inden-5-yl)amino)-2-oxoethyl)-1H-benzo[d]imidazol-2-yl)ethyl)benzamide]
- effect on uptake of Rhodamine-MDP into cells (HCT116 cells): unaffected; also recorded: does not block cellular uptake of MDP
- effect on ssRNA-induced IFNβ expression (NOD2): unaffected; also recorded: did not block
- IC50 (TNFR1; listed as GSK669): > 30 µM
- IC50 (TNFR1; listed as GSK669 (1)): > 100 µM
